Reference: patent publication US6906092B2, “Method of inhibiting matrix metalloproteinases” (Warner-Lambert Company, priority 1996, dated 2005)
Where two headings read alike, the source gives them in different places.

Tests used:
[1] = molecular target: T1, MMP03 (SCD, stromelysin-1 catalytic domain) (Homo sapiens, UniProt P08254); assay: Thiopeptolide assay, stromelysin-1 catalytic domain (SCD); type: biochemical; details: thiopeptolide substrate
T1 construct: SCD (stromelysin-1 catalytic domain); made in house; host or cells: Escherichia coli
T1 sequence (P08254 100-272 limits assumed): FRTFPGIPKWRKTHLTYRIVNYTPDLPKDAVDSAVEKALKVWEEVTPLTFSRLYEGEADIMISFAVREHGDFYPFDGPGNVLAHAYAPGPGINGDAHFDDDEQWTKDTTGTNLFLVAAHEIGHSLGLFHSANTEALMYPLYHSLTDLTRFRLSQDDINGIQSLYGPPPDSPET
Method: (§1) IC50 values were determined using a thiopeptolide substrate, Ac-Pro-Leu-Gly-thioester-Leu-Leu-Gly-OEt (Ye Q.-Z., Johnson L. L., Hupe D. J., and Baragi V., “Purification and Characterization of the Human Stromelysin Catalytic Domain Expressed in Escherichia coli,” Biochemistry, 1992;31:11231-11235). MMP01, MMP07, MMP09, and MMP13 activity was assayed in a method similar to MMP02 and MMP03 (SCD and GCD). MMP01 and MMP09 can be obtained from Washington University School of Medicine, St. Louis, Mo. MMP07 can be obtained in accordance with the known procedure set forth by Ye Q-Z, Johnson L. L., and Baragi V., “Gene Syntheses and Expression in E. coli for PUMP, a Human Matrix Metalloproteinase” Biochem. and Biophys. Res. Comm., 1992;186:143-149. MMP13 can be obtained in accordance with the known procedure set forth by Freije J. M. P., et al., “Molecular Cloning and Expression of Collegenase-3, a Novel Human Matrix Metalloproteinase Produced by Breast Carcinomas” J. Bio. Chem., 1994;269:16766-16773.
(§2) Hydrolysis of the thiopeptolide substrate Ac-Pro-Leu-Gly-thioester-Leu-Leu-Gly-OEt (Bachem) is used as the primary screen to determine IC50 values for MMP inhibitors. A 100 μL reaction contains 1 mM 5,5′-dithiobis(2-nitrobenzoic acid) (DTNB), 100 μM substrate, 0.1% Brij, enzyme, and inhibitor in the appropriate reaction buffer. Activated full-length enzymes are assayed at 5 nM, Stromelysin Catalytic Domain (SCD) at 10 nM, and Gelatinase A Catalytic Domain (GaCD) at 1 nM. Inhibitors are screened from 100 μM to 1 nM. Full-length enzymes are assayed in 50 mM HEPES, 10 mM CaCl2, pH 7.0; SCD in 50 mM MES, 10 mM CaCl2, pH 6.0; and GaCD in 50 mM MOPS, 10 mM CaCl2, 10 μM ZnCl2, pH 7.0.

[2] = molecular target: MMP02 (GCD, recombinant gelatinase A catalytic domain) (Homo sapiens, UniProt P08253); assay: Thiopeptolide assay, gelatinase A catalytic domain (GCD); type: biochemical; details: thiopeptolide substrate
Chain of MMP02 (GCD, recombinant gelatinase A catalytic domain) (P08253 110-221 limits assumed): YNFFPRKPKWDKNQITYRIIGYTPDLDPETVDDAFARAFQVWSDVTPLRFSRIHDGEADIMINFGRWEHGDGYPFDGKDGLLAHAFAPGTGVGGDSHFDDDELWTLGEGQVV
Chain of MMP02 (GCD, recombinant gelatinase A catalytic domain) (P08253 397-465 limits assumed): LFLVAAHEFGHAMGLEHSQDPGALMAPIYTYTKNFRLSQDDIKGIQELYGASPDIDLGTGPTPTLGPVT
Method: as §1, §2

[3] = molecular target: T2, MMP07 (matrilysin) (Homo sapiens, UniProt P09237); assay: Thiopeptolide assay, MMP07; type: biochemical; details: thiopeptolide substrate
T2 construct: made in house; host or cells: E. coli
T2 sequence (P09237 95-267): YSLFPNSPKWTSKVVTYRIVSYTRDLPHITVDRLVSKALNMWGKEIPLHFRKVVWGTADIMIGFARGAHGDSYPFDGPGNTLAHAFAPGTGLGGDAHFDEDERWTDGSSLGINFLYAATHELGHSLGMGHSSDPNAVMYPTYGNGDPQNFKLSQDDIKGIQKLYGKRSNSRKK
Method: as §1, §2

[4] = molecular target: T3, MMP13 (collagenase-3) (Homo sapiens, UniProt P45452); assay: Thiopeptolide assay, MMP13; type: biochemical; details: thiopeptolide substrate
T3 construct: made in house
Method: as §1, §2

[5] = molecular target: T4, MMP01 (fibroblast collagenase) (Homo sapiens, UniProt P03956); assay: Thiopeptolide assay, MMP01; type: biochemical; details: thiopeptolide substrate
T4 construct: purchased Washington University School of Medicine, St. Louis, Mo
T4 sequence (P03956 100-469): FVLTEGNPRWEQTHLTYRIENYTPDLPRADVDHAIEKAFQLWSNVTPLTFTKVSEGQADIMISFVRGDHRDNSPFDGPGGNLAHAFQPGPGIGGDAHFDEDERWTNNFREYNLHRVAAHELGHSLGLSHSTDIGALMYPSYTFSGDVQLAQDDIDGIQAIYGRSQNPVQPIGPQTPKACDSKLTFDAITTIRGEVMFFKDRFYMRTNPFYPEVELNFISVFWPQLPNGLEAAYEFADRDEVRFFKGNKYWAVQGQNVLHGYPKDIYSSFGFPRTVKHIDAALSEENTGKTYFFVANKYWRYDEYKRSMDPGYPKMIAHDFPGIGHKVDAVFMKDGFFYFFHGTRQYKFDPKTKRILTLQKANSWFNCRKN
Method: as §1, §2

[6] = molecular target: gelatinase A (Homo sapiens, UniProt P08253); assay: Gelatin assay (gelatinase natural substrate assay) (Gel); type: biochemical
Method: Gelatin Assay (Gelatinase Natural Substrate Assay) (Gel)
Rat tail Type I collagen (Sigma) is denatured by heating at 95° C. for 20 minutes to prepare the gelatin substrate. A 50 μL reaction contains 1.12 mg/mL substrate, enzyme, inhibitor, and 80 μg/mL soy bean trypsin inhibitor as an inert internal standard in 50 mM MOPS, 10 mM CaCl2, 10 μM ZnCl2, pH 7.0. Activated full-length gelatinase A is assayed at 1 nM and gelatinase A catalytic domain (GaCD) at 10 nM. Inhibitors are screened from 100 μM to 1 nM. The reactions are incubated at 37° C. for 30 minutes then stopped with 50 μL at 2× Tricine gel loading buffer (Novex). Reaction products are separated from undigested substrate by electrophoresis on Tricine-SDS 10-20% polyacrylamide gradient gels (Novex). Protein bands are stained with Coomassie Brilliant Blue R and quantified using a Bio Image densitometer (Millipore). IC50 values are calculated from the disappearance of substrate using the sum of the top three bands of each reaction after normalization with the internal standard.

[7] = MMP inhibitor bioassay (inhibitor plasma level after gavage); type: in vivo, rat; details: 50 mg/kg by gavage
Method: Animals are dosed by gavage with either vehicle or compound at 2, 10, or 50 mg/kg. Blood samples are collected from 3 to 4 animals from each dosing group at 1, 2, 4, 6, and 24 hour postdose, centrifuged, and the plasma immediately frozen at −20° C. Plasma protein is precipitated with an equal volume of acetonitrile and separated by centrifugation at room temperature. The supernate is evaporated to dryness and reconstituted to the original plasma volume with 50 mM Tris, pH 7.6. Ten-fold serial dilutions of the reconstituted plasma samples are prepared in 50 mM Tris, pH 7.6 for dose response assays using the appropriate thiopeptolide assay. […] All control samples are subjected to acetonitrile precipitation and analyzed with the thiopeptolide assay.

[8] = molecular target: T5, stromelysin catalytic domain (SCD) (Homo sapiens, UniProt P08254); assay: Soluble proteoglycan assay (stromelysin natural substrate assay) SCD (PG); type: biochemical; details: solubilized proteoglycan substrate
T5 construct: SCD (stromelysin-1 catalytic domain); made in house; host or cells: Escherichia coli
T5 sequence (P08254 100-272 limits assumed): as the sequence (P08254 100-272 limits assumed) above
Method: Soluble Proteoglycan Assay (Stromelysin Natural Substrate Assay) SCD (PG)
Solubilized proteoglycan substrate is prepared from bovine cartilage powder (Sigma) using the method described by Nagase and Woessner in Anal. Biochem., 1980;107:385-392. A 100 μL reaction contains 10 μg/mL proteoglycan, enzyme, and inhibitor in 50 mM MES, 10 mM CaCl2, pH 6.0. Activated full-length stromelysin or stromelysin catalytic domain (SCD) is assayed at 100 nM. Inhibitors are screened from 100 μM to 1 nM. The reaction is incubated at 37° C. for 3 hours then stopped with the addition of 1,10-phenanthroline at a final concentration of 1 mM. Reaction products are separated from undigested substrate using ultrafree-MC polysulfone microcons with a 300,000 molecular weight cut-off membrane (Millipore) and quantified using a modified […] (DMB) assay described by Farndale, Sayers, and Barrett in Connective Tissue Research, 1982;9:247-248. Absorbance is measured at 518 nm using 32 μg/mL DMB in a 1 mL reaction. The standard curve is constructed from 0 to 100 μg shark cartilage chondroitin sulfate C (Sigma).

[9] = catalytic domain, read-out: (SCD) MMP03 IC50
[10] = catalytic domain, read-out: (GCD) MMP02 IC50

| Structure (SMILES) | IC50 [1, 9] [nM] | IC50 [2, 10] [nM] | further results |
| --- | --- | --- | --- |
| CC(C)[C@H](NS(=O)(=O)c1ccc2oc3cc(Br)ccc3c2c1)C(=O)O [Example 16, (L)-2-(7-Bromo-dibenzofuran-2-sulfonylamino)-3-methyl-butyric acid] | 750 | 470 |  |
| CC(C)[C@H](NS(=O)(=O)c1ccc2sc3ccccc3c2c1)C(=O)O [Example 14, (L)-2-(Dibenzothiophene-2-sulfonylamino)-3-methyl-butyric acid] | 690 | 610 | IC50 [3]: 27 µM; IC50 [4]: 2600 nM |
| O=C(O)[C@H](CSC(c1ccccc1)(c1ccccc1)c1ccccc1)NS(=O)(=O)c1ccc2oc3ccccc3c2c1 [Example 8, (L)-2-(Dibenzofuran-2-sulfonylamino)-3-tritylsulfanyl-propionic acid] |  | 9400 |  |
| CC(C)[C@H](NS(=O)(=O)c1ccc2c(c1)oc1ccccc12)C(=O)O [Example 11, (L)-2-(dibenzofuran-3-sulfonylamino)-3-methyl-butyric acid] | 15 | 4.5 | IC50 [5]: 1.8 µM; IC50 [3]: 5 µM; IC50 [4]: 47 nM |
| CC(C)[C@H](NS(=O)(=O)c1ccc2oc3cc(-c4ccccc4)ccc3c2c1)C(=O)O [Example 17, (L)-3-Methyl-2-(7-phenyl-dibenzofuran-2-sulfonylamino)-butyric acid] | 62 | 360 | IC50 [3]: 6 µM; IC50 [4]: 690 nM |
| CC(C)[C@H](NS(=O)(=O)c1ccc2c(c1)Cc1ccccc1-2)C(=O)O [Example 12, (L)-2-(9H-Fluorene-2-sulfonylamino)-3-methyl-butyric acid] | 185 | 49 | IC50 [5]: 32.3 µM; IC50 [3]: 10.8 µM; IC50 [4]: 340 nM |
| CCC(C)[C@H](NS(=O)(=O)c1ccc2oc3ccccc3c2c1)C(=O)NO (stereo partly shown) [Example 10, (L)-2-(Dibenzofuran-2-sulfonylamino)-3-methyl-pentanoic acid hydroxyamide] |  | 35000 |  |

Second part, led by results:

| IC50 [1, 9] [nM] | IC50 [2, 10] [nM] | Structure (SMILES) | further results |
| --- | --- | --- | --- |
|  | 4500 | O=C(O)[C@H](CS)NS(=O)(=O)c1ccc2oc3ccccc3c2c1 [Example 9, (L)-2-(Dibenzofuran-2-sulfonylamino)-3-mercapto-propionic acid] |  |
| 1500 | 2300 | CCC(C)[C@H](NS(=O)(=O)c1ccc2oc3ccccc3c2c1)C(=O)O (stereo partly shown) [Example 2, (L)-2-(Dibenzofuran-2-sulfonylamino)-3-methyl-pentanoic acid] |  |
| 4800 | 730 | O=C(O)CNS(=O)(=O)c1ccc2oc3ccccc3c2c1 [Example 6, (Dibenzofuran-2-sulfonylamino)-acetic acid] | melting point: 208 to 210 °C |
| 5400 | 1700 | C[C@H](NS(=O)(=O)c1ccc2oc3ccccc3c2c1)C(=O)O [Example 4, (L)-2-(Dibenzofuran-2-sulfonylamino)-propionic acid] |  |
|  | 84 | CC(C)[C@H](NS(=O)(=O)c1ccc2oc3ccccc3c2c1)C(=O)O [Example 5, (L)-2-(Dibenzofuran-2-sulfonylamino)-3-methyl-butyric acid] | melting point: 163 to 165 °C; IC50 [5]: 19 µM; IC50 ([1]; Table 2, read-out: SCD (IC50)): 233 nM; IC50 ([2]; Table 2, read-out: GCD (IC50)): 84 nM; IC50 [6]: 580 nM; Bioassay Peak (inhibitor plasma level) ([7]; peak): 82 µM; concentration at 24 h ([7]; rat, plasma, oral, 24 hours postdose): 180 nM; IC50 [8]: 8.9 µM |
| 1000 | 1200 | O=C(O)C[C@H](NS(=O)(=O)c1ccc2oc3ccccc3c2c1)C(=O)O [Example 7, (L)-2-(Dibenzofuran-2-sulfonylamino)-succinic acid] | melting point: 165 to 168 °C |
|  | 900 | O=C(O)[C@H](Cc1ccccc1)NS(=O)(=O)c1ccc2oc3ccccc3c2c1 [Example 3, (L)-2-(Dibenzofuran-2-sulfonylamino)-3-phenyl-propionic acid] | melting point: 196 to 198 °C |
|  | 320 | CC(C)C[C@H](NS(=O)(=O)c1ccc2oc3ccccc3c2c1)C(=O)O [Example 1, (L)-2-(Dibenzofuran-2-sulfonylamino)-4-methyl-pentanoic acid] | IC50 [5]: 66 µM |
